Where only a bound is given, the exact number is not on record here.

One experiment deals with Lox-IMVI melanoma cell line. In words: Lox-IMVI anti-proliferative assay (growth inhibition, Cell Titer-Glo). In kind it is cell-based, human. The settings on record: Homo sapiens; IC50 activity level in the cell-based Lox-IMVI anti-proliferative assay; read-out: Activity. As to the method: Determination of the Growth Inhibitory Effect of Aminopurine Compounds. The Lox-IMVI melanoma cell line (Source: NCI-DCTD, catalog No. 0507283) was maintained and tested in RPMI+10% FBS. The seeding density for the cell line was optimized to ensure assay linearity in 384-well plates.
Increasing concentrations of Aminopurine Compound (0.5 nM to 10 μM) were spotted in a 10-point serial dilution fashion (3-fold dilution) in duplicate within the plate via an acoustic dispenser (EDC ATS-100) into an empty 384-well plate. The dimethyl sulfoxide (DMSO) concentration was kept constant for a final assay concentration of 0.2% DMSO. Prior to testing, cells were grown and expanded in culture flasks to provide sufficient amounts of starting material. Cells were then diluted to their desired densities and added directly to the compound-spotted 384-well plates. Cells were allowed to grow for 72 hours in 5% CO2 at 37° C. At the time when exposure of cells to compound began (t0), initial cell number was assessed via a viability assay (Cell Titer-Glo) by quantifying the level of luminescence generated by adenosine-5′-triphosphate (ATP) present in viable cells. After 72 hours, cell viability of compound-treated cells was assessed via Cell Titer-Glo Luminescent Cell Viability Assay (Promega Corporation, Madison, Wis.) and read for luminescence.
All data was normalized and represented as a percentage of the DMSO-treated control cells after 72 h. Results were expressed as a IC50 value, which is the compound concentration required to inhibit 50% of the untreated control cells during the 72 hours of treatment.
A Four Parameter Logistic Model (Sigmoidal Dose-Response Model) was used to determine the compound's IC50. y=(A+((B−A)/(1+((C/x)^D))))
wherein: • A=YMin • B=YMax • C=EC50 • D=Hill Slope • IC50 is the compound concentration when Y=50% of DMSO control • Y=Luminescence unit
All inhibition curves were processed and evaluated using XLFit and Activity Base (IDBS).
A general note: In ATP-based viability assays light output follows the ATP content of the culture.
`NC(=O)[C@H]1CC[C@@H](n2c(Nc3c(Cl)cccc3Cl)nc3cnc(NC4COC4)nc32)CC1` [Example 56, (1s,4s)-4-(8-(2,6-dichlorophenylamino)-2-(oxetan-3-ylamino)-9H-purin-9-yl)cyclohexanecarboxamide]: the IC50 is > 1000 nM.

In the case of `CC[C@H](CO)Nc1ncc2nc(Nc3c(Cl)cc(Cl)cc3Cl)n([C@H]3CC[C@@H](C(N)=O)CC3)c2n1` [Example 137, (1S,4s)-4-(2-((R)-1-hydroxybutan-2-ylamino)-8-(2,4,6-trichlorophenylamino)-9H-purin-9-yl)cyclohexanecarboxamide], the IC50 was > 1000 nM.

As to `N#Cc1cc(F)c(Nc2nc3cnc(NC4CCOCC4)nc3n2[C@H]2CC[C@@H](C(N)=O)CC2)c(F)c1` [Example 309, (1s,4s)-4-(8-(4-cyano-2,6-difluorophenylamino)-2-(tetrahydro-2H-pyran-4-ylamino)-9H-purin-9-yl)cyclohexanecarboxamide], the IC50 was < 250 nM.

In the case of `NC(=O)[C@H]1CC[C@@H](n2c(Nc3c(F)ccc(Cl)c3F)nc3cnc(N[C@H]4C[C@H](O)C4)nc32)CC1` [Example 286, (1s,4s)-4-(8-(3-chloro-2,6-difluorophenylamino)-2-((1r,3r)-3-hydroxycyclobutylamino)-9H-purin-9-yl)cyclohexanecarboxamide], the IC50 is > 1000 nM.

The experiment is the same for the next values; noted with them: Homo sapiens; Lox-IMVI anti-proliferative assay, IC50 activity level; read-out: Activity.
As for `NC(=O)[C@H]1CC[C@@H](n2c(Nc3c(F)cc(F)cc3Cl)nc3cnc(N[C@@H]4CCCC[C@H](O)C4)nc32)CC1` [Example 437, (1S,4s)-4-(8-(2-chloro-4,6-difluorophenylamino)-2-((1R,3S)-3-hydroxycycloheptylamino)-9H-purin-9-yl)cyclohexanecarboxamide], the IC50 was > 1000 nM.

As to `C[C@@H]1COCC[C@@H]1Nc1ncc2nc(Nc3c(Cl)cc(C#N)cc3Cl)n([C@H]3CC[C@@H](C(N)=O)CC3)c2n1` [Example 498, (1R,4s)-4-(8-(2,6-dichloro-4-cyanophenylamino)-2-((3S,4S)-3-methyltetrahydro-2H-pyran-4-ylamino)-9H-purin-9-yl)cyclohexanecarboxamide], the IC50 was in the range of 250 to 500 nM.

Still in this experiment, the particulars now being: Homo sapiens; Lox-IMVI melanoma cell line, anti-proliferative assay; read-out: Activity (IC50 activity level).
As for `NC(=O)[C@H]1CC[C@@H](n2c(Nc3c(Cl)cc(C(F)(F)F)cc3Cl)nc3cnc(N[C@@H]4CCCN(Cc5ccccc5)C4)nc32)CC1` [Example 754, (1S,4s)-4-(2-((R)-1-benzylpiperidin-3-ylamino)-8-(2,6-dichloro-4-(trifluoromethyl)phenylamino)-9H-purin-9-yl)cyclohexanecarboxamide], the IC50 was > 1000 nM.

`CS(=O)(=O)N1CCC[C@@H](Nc2ncc3nc(Nc4c(F)cc(Cl)cc4F)n([C@H]4CC[C@@H](C(N)=O)CC4)c3n2)C1` [Example 703, (1S,4s)-4-(8-(4-chloro-2,6-difluorophenylamino)-2-((R)-1-(methylsulfonyl)piperidin-3-ylamino)-9H-purin-9-yl)cyclohexanecarboxamide]: the IC50 was > 1000 nM.

For `NC(=O)[C@H]1CC[C@@H](n2c(Nc3c(F)cc(F)cc3Cl)nc3cnc(NC[C@@H]4CCCC[C@@H]4O)nc32)CC1` [Example 653, (1R,4s)-4-(8-(2-chloro-4,6-difluorophenylamino)-2-(((1S,2S)-2-hydroxycyclohexyl)methylamino)-9H-purin-9-yl)cyclohexanecarboxamide], the IC50 was > 1000 nM.

`C[C@]1(C(N)=O)CC[C@@H](n2c(Nc3c(F)cc(F)cc3Cl)nc3cnc(N[C@H]4CC[C@H](O)C4)nc32)CC1` [Example 644, (1R,4s)-4-(8-(2-chloro-4,6-difluorophenylamino)-2-((1S,3S)-3-hydroxycyclopentylamino)-9H-purin-9-yl)-1-methylcyclohexanecarboxamide]: the IC50 lay in the range of 250 to 500 nM.

`NC(=O)[C@H]1CC[C@@H](n2c(Nc3c(Cl)cc(F)cc3Cl)nc3cnc(N[C@@H]4CCCN(C(=O)Nc5ccccc5)C4)nc32)CC1` [Example 784, (R)-3-(9-((1s,4S)-4-carbamoylcyclohexyl)-8-(2,6-dichloro-4-fluorophenylamino)-9H-purin-2-ylamino)-N-phenylpiperidine-1-carboxamide]: the IC50 was > 1000 nM.

The values are drawn from patent publication US11590139B2, “Substituted aminopurine compounds, compositions thereof, and methods of treatment therewith” (Signal Pharmaceuticals, LLC, priority 2014, dated 2023).
